From ChEMBL document CHEMBL5543128, “Recent Discovery and Development of Inhibitors that Target CDK9 and Their Therapeutic Indications” (J Med Chem, 2024)
One block for each compound: values may come before it.

Legend:
[1] = target: T1, Cyclin-dependent kinase 9 (Homo sapiens, UniProt P50750); assay: Inhibition of CDK9 (unknown origin)
A498 = assay: Antiproliferative activity against human A498 cells assessed as reduction in cell viability incubated for 72 hrs by MTT assay; format: functional, cell-based; details: A498, 72 h
[2] = Antiproliferative activity against human A-293 cells assessed as reduction in cell viability measured for 48 hrs by MTT assay; format: toxicity, cell-based; details: A-293 (AD293) cells
[3] = Inhibition of CDK2/CYCA (unknown origin); set-up: species or system Homo sapiens
OCI-AML-3 = assay: Antiproliferative activity against human OCI-AML-3 assessed as reduction in cell viability incubated for 48 hrs by CellTiter-Glo cell vaibility assay; format: functional, cell-based; details: OCI-AML-3, 48 h
MOLM-13 [4] = assay: cells; details: Homo sapiens, MOLM-13, 96 h
[5] = target: Cyclin-dependent kinase 5 (Homo sapiens, UniProt Q00535)
Sequence of Cyclin-dependent kinase 5 (Q00535 whole entry): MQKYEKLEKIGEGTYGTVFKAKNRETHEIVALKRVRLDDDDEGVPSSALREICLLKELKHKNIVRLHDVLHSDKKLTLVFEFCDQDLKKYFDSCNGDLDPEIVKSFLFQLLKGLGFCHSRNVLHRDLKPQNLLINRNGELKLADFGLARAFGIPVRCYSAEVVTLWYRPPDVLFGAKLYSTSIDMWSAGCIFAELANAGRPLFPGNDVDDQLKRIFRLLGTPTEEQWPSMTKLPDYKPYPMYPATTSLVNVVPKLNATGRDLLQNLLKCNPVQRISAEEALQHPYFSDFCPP

[6] = Downregulation of RNAP2 phosphorylation at serine 2 residue in human MV4-11 cells; format: functional, cell-based
MV4-11 [7] = assay: Antiproliferative activity against human MV4-11 cells assessed as reduction in cell growth incubated for 48 hrs by MTT assay; format: functional, cell-based; details: MV4-11, 48 h
MCF7 = assay: Antiproliferative activity against human MCF7 cells assessed as reduction in cell viability incubated for 72 hrs by MTT assay; format: functional, cell-based; details: MCF7, 72 h
HCT-116 = assay: Antiproliferative activity against human HCT-116 cells assessed as reduction in cell viability incubated for 72 hrs by CCK-8 assay; format: functional, cell-based; details: HCT-116, 72 h
K562 = assay: Antiproliferative activity against human K562 cells assessed as reduction in cell viability incubated for 72 hrs by CCK-8 assay; format: functional, cell-based; details: K562, 72 h
[8] = target: Cyclin-dependent kinase 7 (Homo sapiens, UniProt P50613); assay: Inhibition of CDK7 (unknown origin)
Sequence of Cyclin-dependent kinase 7 (P50613 whole entry): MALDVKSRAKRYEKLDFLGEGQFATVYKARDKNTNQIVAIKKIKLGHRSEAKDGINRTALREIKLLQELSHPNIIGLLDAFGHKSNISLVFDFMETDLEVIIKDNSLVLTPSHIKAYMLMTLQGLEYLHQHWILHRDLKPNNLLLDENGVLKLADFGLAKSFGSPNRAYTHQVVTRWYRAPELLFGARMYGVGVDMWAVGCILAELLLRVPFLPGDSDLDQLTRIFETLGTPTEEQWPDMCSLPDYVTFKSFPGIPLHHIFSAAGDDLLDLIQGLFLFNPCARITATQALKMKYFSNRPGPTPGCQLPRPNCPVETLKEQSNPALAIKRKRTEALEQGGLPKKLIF

MV4-11 [9] = assay: Cytotoxicity against human MV4-11 cells assessed as reduction in cell viability measured for 72 hrs by cellTiter-Glo assay; format: functional, cell-based; details: MV4-11, 72 h
MOLM-13 [10] = assay: Antiproliferative activity against human MOLM-13 cells assessed as reduction in cell viability incubated for 72 hrs by MTT assay; format: functional, cell-based; details: MOLM-13, 72 h
[11] = target: T2, Protein cereblon/Cyclin-dependent kinase 9 (Homo sapiens) (UniProt P50750+Q96SW2); assay: PROTAC activity at CRBN/CDK9 in human MV4-11 cells assessed as maximal degradation of CDK9 at 10 uM measured for 6 hrs by Western blot analysis; format: cell-based
T2 sequence (P50750 whole entry, looked up): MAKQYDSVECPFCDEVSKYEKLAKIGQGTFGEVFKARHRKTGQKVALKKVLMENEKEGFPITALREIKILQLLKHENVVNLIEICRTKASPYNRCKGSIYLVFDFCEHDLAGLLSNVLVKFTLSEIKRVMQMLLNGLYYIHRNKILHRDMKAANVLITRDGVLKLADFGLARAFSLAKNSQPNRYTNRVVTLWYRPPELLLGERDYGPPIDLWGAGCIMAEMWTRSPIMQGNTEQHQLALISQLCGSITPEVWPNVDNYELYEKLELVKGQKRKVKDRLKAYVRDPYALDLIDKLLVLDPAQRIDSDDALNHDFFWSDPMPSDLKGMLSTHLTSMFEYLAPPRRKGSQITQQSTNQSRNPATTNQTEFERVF
T2 sequence (Q96SW2 whole entry, looked up): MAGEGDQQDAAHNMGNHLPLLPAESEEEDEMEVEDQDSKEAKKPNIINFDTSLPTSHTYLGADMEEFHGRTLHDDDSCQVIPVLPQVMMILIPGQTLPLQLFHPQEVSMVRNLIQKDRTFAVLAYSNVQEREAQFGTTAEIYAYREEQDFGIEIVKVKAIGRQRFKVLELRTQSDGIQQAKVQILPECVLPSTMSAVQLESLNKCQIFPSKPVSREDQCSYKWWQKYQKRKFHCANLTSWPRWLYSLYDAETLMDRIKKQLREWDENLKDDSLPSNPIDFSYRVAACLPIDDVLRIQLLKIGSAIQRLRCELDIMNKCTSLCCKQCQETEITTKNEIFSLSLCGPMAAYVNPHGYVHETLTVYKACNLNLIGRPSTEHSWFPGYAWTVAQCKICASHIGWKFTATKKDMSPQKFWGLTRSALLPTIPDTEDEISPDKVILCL

[12] = target: T2, Protein cereblon/Cyclin-dependent kinase 9 (Homo sapiens); assay: PROTAC activity at CRBN/CDK9 in human MV4-11 cells assessed as maximal degradation of CDK9 at 20 uM measured for 6 hrs by Western blot analysis; format: cell-based
Histone deacetylase 1 = Histone deacetylase 1 (Homo sapiens, UniProt Q13547); assay: Inhibition of HDAC1 (unknown origin) by fluorescence based assay
Sequence of Histone deacetylase 1 (Q13547 whole entry): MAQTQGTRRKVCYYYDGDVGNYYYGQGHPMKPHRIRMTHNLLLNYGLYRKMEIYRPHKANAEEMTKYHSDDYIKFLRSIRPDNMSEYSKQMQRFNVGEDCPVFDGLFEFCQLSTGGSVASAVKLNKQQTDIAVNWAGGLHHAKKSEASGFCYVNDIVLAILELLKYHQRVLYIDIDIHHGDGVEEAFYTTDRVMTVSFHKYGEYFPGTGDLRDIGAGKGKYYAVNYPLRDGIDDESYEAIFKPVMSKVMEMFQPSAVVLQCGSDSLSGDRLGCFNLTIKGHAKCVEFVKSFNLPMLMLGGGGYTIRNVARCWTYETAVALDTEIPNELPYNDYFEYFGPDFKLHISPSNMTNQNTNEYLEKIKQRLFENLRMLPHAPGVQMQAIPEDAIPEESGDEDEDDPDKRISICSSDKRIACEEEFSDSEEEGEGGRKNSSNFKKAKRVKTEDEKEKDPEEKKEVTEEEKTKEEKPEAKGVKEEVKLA

[13] = target: T1, Cyclin-dependent kinase 9; assay: Inhibition of CDK9 (unknown origin) at 100 nM relative to control
L02 = assay: Antiproliferative activity against human L02 cells assessed as reduction in cell viability incubated for 72 hrs by MTT assay; format: functional, cell-based; details: L02, 72 h
[14] = Cytotoxicity against human HEK293T cells assessed as reduction in cell viability incubated for 72 hrs by MTT assay; format: toxicity, cell-based, HEK-293T
[15] = target: Cyclin-dependent kinase 4 (Homo sapiens, UniProt P11802); assay: Inhibition of CDK4 (unknown origin)
Sequence of Cyclin-dependent kinase 4 (P11802 whole entry): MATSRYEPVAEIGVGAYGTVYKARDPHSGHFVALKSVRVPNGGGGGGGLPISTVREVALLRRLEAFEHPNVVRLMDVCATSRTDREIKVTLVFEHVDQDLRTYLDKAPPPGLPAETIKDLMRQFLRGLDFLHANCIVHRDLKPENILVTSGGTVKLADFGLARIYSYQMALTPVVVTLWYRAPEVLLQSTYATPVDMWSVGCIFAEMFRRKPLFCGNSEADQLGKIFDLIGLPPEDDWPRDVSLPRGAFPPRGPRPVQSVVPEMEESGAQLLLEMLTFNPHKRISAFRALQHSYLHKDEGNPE

CDK9/cyclin T1 [16] = target: T3, CDK9/cyclin T1 (Homo sapiens, UniProt P50750); assay: Inhibition of CDK9/cyclin T1 (unknown origin); format: protein-complex assay
T3 sequence (O60563 whole entry): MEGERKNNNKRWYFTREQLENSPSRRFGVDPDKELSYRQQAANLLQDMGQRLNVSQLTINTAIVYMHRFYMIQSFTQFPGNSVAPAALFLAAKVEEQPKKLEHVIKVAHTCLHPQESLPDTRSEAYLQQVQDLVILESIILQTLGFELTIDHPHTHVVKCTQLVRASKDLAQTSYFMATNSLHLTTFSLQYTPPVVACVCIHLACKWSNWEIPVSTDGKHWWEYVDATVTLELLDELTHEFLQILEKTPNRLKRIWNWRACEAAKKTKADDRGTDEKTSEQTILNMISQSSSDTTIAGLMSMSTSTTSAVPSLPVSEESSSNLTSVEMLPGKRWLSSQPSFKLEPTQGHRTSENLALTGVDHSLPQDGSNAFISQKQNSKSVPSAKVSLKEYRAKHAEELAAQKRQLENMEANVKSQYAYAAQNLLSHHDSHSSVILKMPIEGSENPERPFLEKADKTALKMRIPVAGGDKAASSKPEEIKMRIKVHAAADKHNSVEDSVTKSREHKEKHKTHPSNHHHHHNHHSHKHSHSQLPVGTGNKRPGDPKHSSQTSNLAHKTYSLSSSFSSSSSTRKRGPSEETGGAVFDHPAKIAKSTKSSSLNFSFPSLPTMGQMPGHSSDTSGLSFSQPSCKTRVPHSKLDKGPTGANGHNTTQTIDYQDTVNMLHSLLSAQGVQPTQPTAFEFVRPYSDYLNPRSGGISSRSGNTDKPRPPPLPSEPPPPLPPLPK
T3 sequence (P50750 whole entry): as the sequence (P50750 whole entry, looked up) above

CDK7/Cyclin H/MNAT1 = CDK7/Cyclin H/MNAT1 (Homo sapiens, UniProt P50613); assay: Inhibition of CDK7/CycH/MAT1 (unknown origin); format: protein-complex assay
[17] = target: Cyclin-dependent kinase 2/cyclin E1 (Homo sapiens, UniProt P24941); assay: Inhibition of CDK2/cyclin E1 (unknown origin); format: protein-complex assay
MV4-11 [18] = assay: Cytotoxicity against human MV4-11 cells assessed as cell growth reduction measured for 48 hrs by MTT assay; format: functional
[19] = target: Casein kinase I isoform alpha (Homo sapiens, UniProt P48729); assay: Binding affinity to CK1alpha (unknown origin) assessed as dissociation constant
Sequence of Casein kinase I isoform alpha (P48729 whole entry, canonical isoform): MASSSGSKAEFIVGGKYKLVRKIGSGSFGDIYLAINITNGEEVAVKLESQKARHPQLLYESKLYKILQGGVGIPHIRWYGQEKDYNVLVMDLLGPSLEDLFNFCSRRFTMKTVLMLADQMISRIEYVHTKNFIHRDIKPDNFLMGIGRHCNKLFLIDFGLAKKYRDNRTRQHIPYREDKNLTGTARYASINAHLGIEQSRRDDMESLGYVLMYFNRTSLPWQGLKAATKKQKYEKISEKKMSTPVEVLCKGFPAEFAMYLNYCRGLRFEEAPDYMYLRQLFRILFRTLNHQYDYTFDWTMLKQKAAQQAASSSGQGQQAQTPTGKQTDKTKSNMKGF

[20] = target: T1, Cyclin-dependent kinase 9; assay: Binding affinity to CDK9 (unknown origin) assessed as dissociation constant
[21] = target: T1, Cyclin-dependent kinase 9
CDK9/cyclin T1 [22] = target: T3, CDK9/cyclin T1; assay: Binding affinity to CDK9/cyclin T1 (unknown origin) assessed as inhibition constant; format: protein-complex assay
[23] = target: Receptor-type tyrosine-protein kinase FLT3 (Homo sapiens, UniProt P36888, ITD); assay: Binding affinity FLT3-ITD mutant (unknown origin) assessed as inhibition constant
Sequence of Receptor-type tyrosine-protein kinase FLT3 (P36888 whole entry, looked up, change not shown): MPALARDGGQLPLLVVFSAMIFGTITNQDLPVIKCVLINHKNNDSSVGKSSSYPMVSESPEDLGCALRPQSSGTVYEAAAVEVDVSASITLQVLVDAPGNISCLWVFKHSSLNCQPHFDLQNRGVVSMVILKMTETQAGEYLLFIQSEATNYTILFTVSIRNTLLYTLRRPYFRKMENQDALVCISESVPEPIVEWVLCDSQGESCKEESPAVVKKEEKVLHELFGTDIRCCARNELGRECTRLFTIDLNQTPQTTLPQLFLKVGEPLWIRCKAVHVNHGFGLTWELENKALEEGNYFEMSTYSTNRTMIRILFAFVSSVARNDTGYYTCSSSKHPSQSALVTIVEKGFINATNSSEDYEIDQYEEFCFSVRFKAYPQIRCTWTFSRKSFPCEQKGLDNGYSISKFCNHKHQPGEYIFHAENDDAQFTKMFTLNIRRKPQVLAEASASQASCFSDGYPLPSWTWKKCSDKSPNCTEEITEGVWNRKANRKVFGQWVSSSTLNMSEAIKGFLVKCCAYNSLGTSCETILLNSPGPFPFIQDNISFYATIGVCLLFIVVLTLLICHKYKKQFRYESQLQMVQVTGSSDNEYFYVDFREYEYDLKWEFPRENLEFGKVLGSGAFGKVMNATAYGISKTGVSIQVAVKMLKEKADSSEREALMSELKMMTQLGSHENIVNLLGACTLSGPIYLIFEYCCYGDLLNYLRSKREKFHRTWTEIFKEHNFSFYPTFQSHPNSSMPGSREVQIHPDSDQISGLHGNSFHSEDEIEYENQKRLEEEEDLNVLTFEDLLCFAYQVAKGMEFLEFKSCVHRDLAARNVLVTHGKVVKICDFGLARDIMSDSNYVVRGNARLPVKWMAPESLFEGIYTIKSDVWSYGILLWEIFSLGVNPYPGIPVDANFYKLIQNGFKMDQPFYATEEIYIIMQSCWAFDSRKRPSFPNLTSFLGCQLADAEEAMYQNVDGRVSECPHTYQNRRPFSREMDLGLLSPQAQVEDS

T1 sequence (P50750 whole entry): as the sequence (P50750 whole entry, looked up) above

Compound: Cc1ccc([N+](=O)[O-])cc1S(=O)(=O)N(C)/N=C/c1cnc2ccc(Br)cn12
IC50 (OCI-AML-3): 220 nM

Compound: COc1cc(F)ccc1-c1ncnc(Nc2cccc(C[S@](C)(=N)=O)c2)n1 [ATUVECICLIB]
IC50 (MOLM-13 [4]): 310 nM

Compound: CC(=O)N[C@H]1CCC[C@@H](C(=O)Nc2cc(-c3cnn4c3CC(C)(C)C4)c(Cl)cn2)C1
IC50 [6]: 13 nM
IC50 (MV4-11 [7]): 13.7 nM

Compound: COC[C@H](C)N[C@H]1CC[C@H](Nc2cc(-c3cccc(NCC4(C#N)CCOCC4)n3)c(Cl)cn2)CC1
IC50 [1]: < 0.514 nM

Compound: O=C1CCC(N2C(=O)c3cccc(OCCCCCOc4ccc(CC(=O)Nc5cc(C6CCC6)[nH]n5)cc4)c3C2=O)C(=O)N1 (stereo unspecified)
Emax [11]: 56%
Emax [12]: 65%

Compound: COc1ccc(C(=O)Nc2cc(-c3ccnc(N4CCC(O)CC4)c3)ccn2)cc1
IC50 (L02): > 800 nM
IC50 at 72 h [14]: > 800 nM

Compound: CN(C)C(=O)c1cc2cnc(Nc3ccc(S(N)(=O)=O)cc3)nc2n1C1CCCC1
IC5 [15]: 12 nM

Compound: CN(C)C/C=C\C(=O)Nc1ccc(C(=O)N[C@H]2CC[C@H](Nc3cc(-c4cccc(NCc5cccc(F)c5)n4)c(Cl)cn3)CC2)cc1
IC50 (CDK9/cyclin T1 [16]): 196 nM
IC50 (A498): < 700 nM
IC50 at 48 h [2]: 3230 nM

Compound: c1ccc(CNc2c(-c3ccncc3)nc3cnccn23)cc1
IC50 (MCF7): 7000 nM
IC50 (HCT-116): 7000 nM
IC50 (K562): 7000 nM

Compound: CCC(CC)c1cc(N[C@H]2CC[C@H](N)C2)n2nccc2n1 [ISTISOCICLIB]
GR50 (MV4-11 [18]): 0.288 µM

Compound: Cn1ncc(-c2nc(NC3CCC(N)CC3)ncc2Cl)c1CC1CC1 (stereo unspecified)
Kd [19]: 5.3 nM
Kd [20]: 4 nM

Now from value to compound, other results behind:

IC50 [1]: < 0.4 nM
Compound: N[C@H]1CC[C@H](Nc2cc(-c3cccc(NCc4cccc(F)c4)n3)c(Cl)cn2)CC1
IC50 (A498): 57 nM
IC50 at 48 h [2]: 76 nM

IC50 [3]: 2440 nM
Compound: COc1ccccc1-c1cc(Nc2cccc(CS(N)(=O)=O)c2)ncn1

IC50 [3]: 1180 nM
Compound: COc1cc(O)c2c(=O)cc(-c3ccc(N4CCN(C)CC4)cc3)oc2c1N1CCNCC1

IC50 [1]: 16 nM
IC50 [5]: 574 nM
Compound: COc1ccccc1-c1cccc(Nc2cccc(N3CCCNCC3)c2)n1

IC50 (MCF7): 11600 nM
IC50 (HCT-116): 11600 nM
IC50 (K562): 11600 nM
Compound: COc1ccc(Nc2c(-c3ccoc3)nc3cnccn23)cc1

IC50 [8]: 172 nM
IC50 [1]: 2 nM
Compound: COCCN[C@H]1CC[C@H](Nc2cc(-c3csc(NCC4(C#N)CCOCC4)n3)c(Cl)cn2)CC1
IC50 (MV4-11 [9]): 12 nM

IC50 (MOLM-13 [10]): 29 nM
Compound: COc1cc(F)ccc1-c1cc(Nc2cc(C[S@](C)(=N)=O)ccn2)ncc1F

IC5 [1]: 6.7 nM
Compound: CCN1C(=O)COc2c(CN3CCOCC3)cc(Nc3nccc(-c4cccnc4)n3)cc21

IC50 [1]: 2.23 nM
Compound: N[C@H]1CCN(c2c3c(nc4ccc(-c5ccnc(NC(=O)C6CC6)n5)cc24)CCCC3)C1

IC50 (Histone deacetylase 1): 98 nM
inhibition [13]: 98.3%
Compound: Nc1ccccc1NC(=O)c1ccc(NC(=O)c2n[nH]cc2NC(=O)c2c(Cl)cccc2Cl)cc1

IC50 (CDK7/Cyclin H/MNAT1): 93 nM
IC50 [17]: > 20000 nM
Compound: O=c1cc(-c2cccc(O)c2)oc2c1ccc1occc12

Kd [19]: 9.8 nM
Kd [20]: 5.4 nM
Compound: Cn1ncc(-c2nc(NC3CCC(N)CC3)ncc2F)c1CC1CC1 (stereo unspecified)

IC50 [15]: 2.2 nM
IC50 [21]: 1.9 nM
Compound: CC(C)c1c2cc(-c3ccnc(Nc4ccc5c(N6CCN(C)CC6)ncnc5c4)n3)ccc2nn1C

Ki (CDK9/cyclin T1 [22]): 8 nM
Ki [23]: 13 nM
Compound: Cc1cnc(NC2CCC(N)CC2)nc1-c1cnc2ccc(-c3ccccc3)cn12 (stereo unspecified)

IC50 [1]: 184 nM
Compound: COc1ccccc1-c1ccnc(Nc2ccc3c(c2)CC(=O)C(C(C)=O)C3C)n1 (stereo unspecified)
